# According to the supplement of paper PMC10307832:
# Experiments:
# Assay in all cases: relative viability (nuclei count vs DMSO), 5 days (fraction); higher = more cells survive
# [1] = compound: C1=CC=C2C(=C1)C=CC(=C2SSC3=C(C=CC4=CC=CC=C43)O)O [IPA-3] + CS(=O)(=O)N1CCN(Cc2cc3nc(-c4cccc5[nH]ncc45)nc(N4CCOCC4)c3s2)CC1 [Pictilisib] (partner 1 µM)
# Method in brief: (§1)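 Lung cancer cell lines in 1536-well plates were dosed by pin tool the day after seeding, either with one drug alone or with a fixed anchor-drug dose plus five library-drug doses (not always all listed) in √10 steps. After 5 days, cells were fixed and their nuclei stained in one step (final 0.05% Triton X-100, 1% formaldehyde, 1 ug/ml Hoechst), then counted on 4× images. Relative viability is the nuclei count in treated wells divided by that in vehicle wells. Values are medians of duplicate plates.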
# [2] = compound: Cc1ccc(-n2nc(C(C)(C)C)cc2NC(=O)Nc2ccc(OCCN3CCOCC3)c3ccccc23)cc1 [Doramapimod] + N=C(N)NC(=N)NCCc1ccccc1 [Phenformin] (partner 250 µM)
# Method in brief: as §1
# [3] = compound: Cc1ccc(-n2nc(C(C)(C)C)cc2NC(=O)Nc2ccc(OCCN3CCOCC3)c3ccccc23)cc1 [Doramapimod] + O=C(c1cc(Cc2n[nH]c(=O)c3ccccc23)ccc1F)N1CCN(C(=O)C2CC2)CC1 [Olaparib] (partner 8 µM)
# Method in brief: as §1
# [4] = compound: Cn1c(Nc2ccc(C(F)(F)F)cc2)nc2cc(Oc3ccnc(-c4ncc(C(F)(F)F)[nH]4)c3)ccc21 [RAF265] + C[C@@H](Oc1cc(-c2cnn(C3CCNCC3)c2)cnc1N)c1c(Cl)ccc(F)c1Cl [Crizotinib] (partner 1 µM)
# Method in brief: as §1
Cell Line,relative viability ([1]; first compound 0.2 µM),relative viability ([1]; first compound 0.6325 µM),relative viability ([1]; first compound 2 µM),relative viability ([1]; first compound 6.325 µM),relative viability ([1]; first compound 20 µM),relative viability ([2]; first compound 0.02 µM),relative viability ([2]; first compound 0.06325 µM),relative viability ([2]; first compound 0.2 µM),relative viability ([2]; first compound 0.6325 µM),relative viability ([2]; first compound 2 µM),relative viability ([3]; first compound 0.02 µM),relative viability ([3]; first compound 0.06325 µM),relative viability ([3]; first compound 0.2 µM),relative viability ([3]; first compound 0.6325 µM),relative viability ([3]; first compound 2 µM),relative viability ([4]; first compound 0.01 µM),relative viability ([4]; first compound 0.03162 µM),relative viability ([4]; first compound 0.1 µM),relative viability ([4]; first compound 0.3162 µM),relative viability ([4]; first compound 1 µM)
LOU-NH91,0.505,0.501,0.567,0.523,0.57,0.76,0.671,0.735,0.774,0.417,0.987,0.929,0.902,1,0.737,0.758,0.728,0.752,0.529,0.59
LU99A,0.353,0.317,0.333,0.321,0.277,0.768,0.851,0.942,0.846,0.712,0.273,0.304,0.27,0.259,0.256,0.576,0.467,0.521,0.344,0.255
LXF-289,0.85,0.703,0.772,0.791,0.918,0.491,0.556,0.472,0.459,0.44,1.03,1.01,1.05,1.08,1.02,0.849,0.81,0.872,0.677,0.684
NCI-H23,0.672,0.531,0.473,0.509,0.611,0.786,0.781,0.788,0.828,0.656,0.397,0.352,0.417,0.335,0.311,0.623,0.502,0.473,0.388,0.248
NCI-H322M,0.501,0.272,0.508,0.481,0.572,0.813,0.782,0.852,0.909,0.828,0.849,0.827,0.864,0.857,0.884,0.897,0.839,0.866,0.281,0.282
NCI-H358,0.35,0.347,0.372,0.372,0.291,0.301,0.314,0.305,0.385,0.356,0.54,0.565,0.516,0.676,0.511,0.618,0.597,0.5,0.395,0.23
NCI-H441,0.479,0.457,0.41,0.462,0.427,0.895,0.808,0.828,,0.729,0.45,0.501,0.45,0.609,0.356,0.779,0.656,0.715,0.73,0.473
NCI-H460,0.479,0.321,0.36,0.408,0.557,0.51,0.54,0.581,0.595,0.454,0.453,0.431,0.422,0.459,0.419,0.972,0.904,0.743,,0.881
NCI-H520,0.3,0.277,0.268,0.246,0.202,0.632,0.62,0.533,0.492,0.346,0.336,0.359,0.354,0.364,0.305,0.632,0.762,0.774,0.771,0.607
NCI-H596,0.41,0.412,0.409,0.401,0.45,0.672,0.689,0.672,0.795,0.703,0.747,0.695,0.749,0.73,0.788,0.933,0.938,0.962,0.924,0.711
NCI-H647,0.44,0.351,0.363,0.434,0.471,0.436,0.593,0.614,0.543,0.494,0.475,0.488,0.509,0.443,0.444,1.07,0.938,0.873,0.541,0.689
NCI-H650,1.15,0.89,0.922,1.17,1.15,0.495,0.458,0.527,0.431,0.389,0.468,0.47,0.403,0.413,0.395,0.886,0.722,0.684,0.808,0.317
NCI-H661,0.409,0.458,0.472,0.547,0.418,0.297,0.272,0.274,0.289,0.308,0.797,0.756,0.785,0.717,0.75,0.931,0.747,1.04,0.906,0.716
NCI-H727,0.583,0.229,0.456,0.513,0.402,0.652,0.498,0.445,0.544,0.576,0.711,0.723,0.772,0.726,0.595,0.8,0.727,0.967,0.598,0.283
NCI-H838,0.533,0.455,0.451,0.463,0.337,0.607,0.577,0.654,0.665,0.595,0.794,0.833,0.811,0.873,0.737,0.807,0.855,0.989,0.911,0.718
